# According to US4956179A, “Antibacterial combination of penicillin and cephalosporin” (priority 1971, dated 1990):
# Tests used:
# Format in all cases: cell-based
# [1] = tested on: clinically isolated coliform bacterium (No. 9/70); test: M.I.C., serial dilution test (Example 2); details: coliform No. 9/70; penicillin alone, II alone, 1:1 combination
# Procedure: (§1) The in vitro activity of 6-(D-α-aminophenylacetamido) penicillanic acid (I), 6-[(hexahydro-1H-azepin-1-yl)methyleneamino]penicillanic acid (II) and of a combination (III) of equal parts of the two compounds against clinically isolated enterobacteria was determined in a serial dilution test. Tryptose phosphate broth, containing the appropriate concentrations of the compounds or of the combination of them, was inoculated with 0.5×10^4 -5×10^4 organisms of the various micro-organisms tested and incubated overnight at 37° C. Minimum inhibitory concentrations (M.I.C.) were taken as the concentrations of the compounds or of the combination at which no visible growth occurred.
# Using the same technique as described in Example 1 the in vitro-activity of 6-[(hexahydro-1H-azepin-1-yl)methyleneamino]penicillanic acid (II), of various penicillins and of 1:1-combinations of II with the respective penicillin was determined against a clinically isolated coliform bacterium (No. 9/70).
# [2] = tested on: clinically isolated strain of Proteus (Proteus Mirabilis I 190); test: M.I.C., serial dilution test (Example 11); details: cephalosporin alone, II alone, 1:1 combination
# Procedure: as §1
# Using the same technique as described in Example 1 the in vitro activity of 6-[(hexahydro-1H-azepin-1-yl)methyleneamino]penicillanic acid (II), of various cephalosporins and of 1:1 combinations of II with these cephalosporins was determined against a clinically isolated strain of Proteus (Proteus Mirabilis I 190).
# [3] = tested on: clinically isolated strain of Klebsiella-Enterobacter (strain 4/71); test: M.I.C., serial dilution test (Example 10); details: cephalosporin alone, II alone, 1:1 combination
# Procedure: as §1
# Using the same technique as described in Example 1 the in vitro activity of 6-[(hexahydro-1H-azepin-1-yl)methyleneamino]penicillanic acid (II), of various cephalosporins previously mentioned in this specification, and of 1:1 combinations of II with these cephalosporins was determined against a clinically isolated strain of Klebsiella-Enterobacter (strain 4/71)
# [4] = tested on: Klebsiella-Enterobacter. 5/70; test: M.I.C., serial dilution test (Example 4); details: Klebsiella-Enterobacter. strain 5/70; V = equal parts I and IV
# Procedure: as §1
# [5] = tested on: Klebsiella-Enterobacter. 7/70; test: M.I.C., serial dilution test (Example 4); details: Klebsiella-Enterobacter. strain 7/70; V = equal parts I and IV
# Procedure: as §1
# [6] = tested on: Klebsiella-Enterobacter. 9/70; test: M.I.C., serial dilution test (Example 4); details: Klebsiella-Enterobacter. strain 9/70; V = equal parts I and IV
# Procedure: as §1
# [7] = tested on: Klebsiella-Enterobacter. 1/70; test: M.I.C., serial dilution test (Example 4); details: Klebsiella-Enterobacter. strain 1/70; V = equal parts I and IV
# Procedure: as §1
# Coliform 7/70 = test: M.I.C., serial dilution test (Example 4); details: Coliform strain 7/70; V = equal parts I and IV
# Procedure: as §1
# Proteus 9/70 = test: M.I.C., serial dilution test (Example 4); details: Proteus strain 9/70; V = equal parts I and IV
# Procedure: as §1
# Proteus 7/70 = test: M.I.C., serial dilution test (Example 4); details: Proteus strain 7/70; V = equal parts I and IV
# Procedure: as §1
# [8] = tested on: Klebsiella-Enterobacter. 431; test: M.I.C., serial dilution test (Example 4); details: Klebsiella-Enterobacter. strain 431; V = equal parts I and IV
# Procedure: as §1
# Proteus 4/70 = test: M.I.C., serial dilution test (Example 4); details: Proteus strain 4/70; V = equal parts I and IV
# Procedure: as §1
# Coliform 16/70 = test: M.I.C., serial dilution test (Example 4); details: Coliform strain 16/70; V = equal parts I and IV
# Procedure: as §1
# [9] = tested on: Klebsiella-Enterobacter. 10/70; test: M.I.C., serial dilution test (Example 4); details: Klebsiella-Enterobacter. strain 10/70; V = equal parts I and IV
# Procedure: as §1
# Proteus 10/70 = test: M.I.C., serial dilution test (Example 4); details: Proteus strain 10/70; V = equal parts I and IV
# Procedure: as §1
# Coliform 14/70 = test: M.I.C., serial dilution test (Example 4); details: Coliform strain 14/70; V = equal parts I and IV
# Procedure: as §1
# Proteus 20/70 = test: M.I.C., serial dilution test in tryptose phosphate broth (Example 1); details: Proteus strain 20/70; overnight at 37° C; III = equal parts I and II
# Procedure: as §1
# Coliform 10/70 = test: as above; details: Coliform strain 10/70; overnight at 37° C; III = equal parts I and II
# Procedure: as §1
# Proteus vulgaris B = test: as above; details: overnight at 37° C, III = equal parts I and II
# Procedure: as §1
# Coliform 3/70 = test: as above; details: Coliform strain 3/70; overnight at 37° C; III = equal parts I and II
# Procedure: as §1
# Proteus 12/70 = test: as above; details: Proteus strain 12/70; overnight at 37° C; III = equal parts I and II
# Procedure: as §1
# Proteus 13/70 = test: as above; details: Proteus strain 13/70; overnight at 37° C; III = equal parts I and II
# Procedure: as §1
# [10] = tested on: Klebsiella-Enterobacter strain 5; test: MIC, serial dilution test (Example 9); details: 1:2 and 2:1 given as I + VII concentrations
# Procedure: (§2) Tryptose phosphate broth, containing the appropriate concentrations of the compounds or of the combination of them, was inoculated with 0.5×10^4 -5×10^4 organisms of the various micro-organisms tested and incubated overnight at 37° C. Minimum inhibitory concentrations (M.I.C.) were taken as the concentrations of the compounds or of the combination at which no visible growth occurred.
# [11] = tested on: Klebsiella-Enterobacter strain 1; test: MIC, serial dilution test (Example 9); details: 1:2 and 2:1 given as I + VII concentrations
# Procedure: as §2
# [12] = tested on: clinically isolated coliform; test: Emergence of resistance, subculturing by serial twofold broth dilution (Example 7); details: I + II 1:1
# Procedure: The strain used was a clinically isolated coliform. As inocula were used bacteria from the tube with the highest concentration of compound still permitting visible growth to the naked eye after incubation at 37° C. overnight.
# [13] = tested on: Klebsiella-Enterobacter strain 7; test: MIC, serial dilution test (Example 9); details: 1:2 and 2:1 given as I + VII concentrations
# Procedure: as §1
# (§3) Using the technique described in Example 1 the in vitro effect of combinations of 6-(D-α-aminophenylacetamido)-penicillanic acid (I) and 6-[(N,N-diethylformamidino)-N'-amino]penicillanic acid (VII) in the ratios 1:1, 1:2 and 2:1 against clinically isolated strains of Coliforma, Klebsiella-Enterobacter and Proteus was determined in serial dilution tests.
# Proteus strain 9 = test: MIC, serial dilution test (Example 9); details: 1:2 and 2:1 given as I + VII concentrations
# Procedure: as §1, §3
# Coliforma strain 4 = test: MIC, serial dilution test (Example 9); details: 1:2 and 2:1 given as I + VII concentrations
# Procedure: as §1, §3
# Coliform 9/70 = test: M.I.C., serial dilution test in tryptose phosphate broth (Example 1); details: Coliform strain 9/70; overnight at 37° C; III = equal parts I and II
# Procedure: as §1
# E.coli III = test: Emergence of resistance, subculturing by serial twofold broth dilution (Example 6); details: passage 2; I + IV 1:1
# Procedure: Subculturing using a serial twofold broth dilution technique was performed with 6-(D-α-amino-phenylacetamido)-penicillanic acid (I), 6-[(piperidyl-1)methyleneamino]penicillanic acid (IV) and a 1:1 combination of I+IV. As inocula were used bacteria from the tube with the highest concentration of compound still permitting visible growth to the naked eye after incubation at 37° C. overnight. The following increases in MIC-values were noted.
# Coliforma strain 14 = test: MIC, serial dilution test (Example 8); details: VI + VII equal parts
# Procedure: as §1
# (§4) Using the technique described in Example 1 the in vitro activity of cephalotin (VI) and 6-[(N,N-diethylformamidino)-N'-amino]penicillanic acid (VII) and of a combination of equal parts of the compounds against clinically isolated strains of Coliforma and Klebsiella-Enterobacter was determined in serial dilution tests.
# Coliforma strain 3 = test: MIC, serial dilution test (Example 8); details: VI + VII equal parts
# Procedure: as §1, §4
# Coliforma strain 7 = test: MIC, serial dilution test (Example 8); details: VI + VII equal parts
# Procedure: as §1, §4
# [14] = tested on: Klebsiella-Enterobacter strain 5; test: MIC, serial dilution test (Example 8); details: VI + VII equal parts
# Procedure: as §2
structure (smiles),measurement,setting,value
CC1(C)S[C@@H]2[C@H](NC(=O)[C@H](N=[N+]=[N-])c3ccccc3)C(=O)N2[C@H]1C(=O)O [6-(D-α-azidophenylacetamido)penicillanic acid],M.I.C.,[1],50 µg/mL
[N-]=[N+]=NCC1=C(C(=O)O)N2C(=O)C(NC(=O)Cc3cccs3)C2SC1 (centres unmarked) [EPC 821/4II],M.I.C.,[2],12.5 µg/mL
same,M.I.C.,[3],100 µg/mL
"CC1(C)S[C@@H]2[C@H](NC(=O)[C@H](N)c3ccccc3)C(=O)N2[C@H]1C(=O)O [I, 6-(D-α-aminophenylacetamido)penicillanic acid]",M.I.C.,[4],100 µg/mL
same,M.I.C.,[5],> 100 µg/mL
same,M.I.C.,[6],50 µg/mL
same,M.I.C.,[7],50 µg/mL
same,M.I.C.,Coliform 7/70,3.12 µg/mL
same,M.I.C.,Proteus 9/70,6.25 µg/mL
same,M.I.C.,Proteus 7/70,1.56 µg/mL
same,M.I.C.,[8],100 µg/mL
same,M.I.C.,Proteus 4/70,1.56 µg/mL
same,M.I.C.,Coliform 16/70,3.12 µg/mL
same,M.I.C.,[9],50 µg/mL
same,M.I.C.,Proteus 10/70,1.56 µg/mL
same,M.I.C.,Coliform 14/70,6.25 µg/mL
same,M.I.C.,Proteus 20/70,> 100 µg/mL
same,M.I.C.,Coliform 10/70,3.12 µg/mL
same,M.I.C.,Proteus vulgaris B,50 µg/mL
same,M.I.C.,Coliform 3/70,1.56 µg/mL
same,M.I.C.,Proteus 12/70,100 µg/mL
same,M.I.C.,Proteus 13/70,100 µg/mL
same,MIC,[10],100 µg/mL
same,MIC,[11],50 µg/mL
same,MIC,[12]; passage 1,"3,12 μg/ml"
same,MIC,[13],> 100 µg/mL
same,MIC,Proteus strain 9,3.12 µg/mL
same,MIC,Coliforma strain 4,3.12 µg/mL
"CC1(C)S[C@@H]2[C@H](N=CN3CCCCCC3)C(=O)N2[C@H]1C(=O)O [II, 6-[(hexahydro-1H-azepin-1-yl)methyleneamino]penicillanic acid]",M.I.C.,Coliform 3/70,12.5 µg/mL
same,M.I.C.,Coliform 9/70,3.12 µg/mL
same,M.I.C.,[2],100 µg/mL
same,MIC,[12]; passage 0,0.39 µg/mL
same,MIC,[12]; passage 1,6.25 µg/mL
same,MIC,[12]; passage 2,25 µg/mL
same,MIC,[12]; passage 3,25 µg/mL
same,MIC,[12]; passage 4,25 µg/mL
same,MIC,[12]; passage 5,25 µg/mL
same,MIC,[12]; passage 7,25 µg/mL
same,MIC,[12]; passage 8,25 µg/mL
"CC1(C)S[C@@H]2[C@H](N=CN3CCCCC3)C(=O)N2[C@H]1C(=O)O [IV, 6-[(piperidyl-1)-methyleneamino]penicillanic acid]",M.I.C.,Coliform 7/70,1.56 µg/mL
same,M.I.C.,Coliform 16/70,1.56 µg/mL
same,M.I.C.,Coliform 14/70,3.12 µg/mL
same,MIC,E.coli III,6.25 µg/mL
"CC(=O)OCC1=C(C(=O)O)N2C(=O)[C@@H](NC(=O)Cc3cccs3)[C@H]2SC1 [VI, cephalotin]",M.I.C.,[2],3.12 µg/mL
same,M.I.C.,[3],50 µg/mL
same,MIC,Coliforma strain 14,12.5 µg/mL
same,MIC,Coliforma strain 3,6.25 µg/mL
same,MIC,Coliforma strain 7,12.5 µg/mL
same,MIC,[14],25 µg/mL
"CCN(C=N[C@@H]1C(=O)N2[C@@H]1SC(C)(C)[C@@H]2C(=O)O)CC [VII, 6-[(N,N-diethylformamidino)-N'-amino]penicillanic acid]",MIC,Coliforma strain 14,12.5 µg/mL
same,MIC,Coliforma strain 3,6.25 µg/mL
same,MIC,[10],> 100 µg/mL
same,MIC,[11],> 100 µg/mL
same,MIC,[13],> 100 µg/mL
same,MIC,Proteus strain 9,100 µg/mL
same,MIC,Coliforma strain 4,3.12 µg/mL
same,MIC,[14],> 100 µg/mL
CC1(C)S[C@@H]2[C@H](NC(=O)Cc3ccccc3)C(=O)N2[C@H]1C(=O)O [benzylpenicillin],M.I.C.,[1],25 µg/mL
CC1(C)S[C@@H]2[C@H](NC(=O)C(C(=O)O)c3ccccc3)C(=O)N2[C@H]1C(=O)O (stereo partly drawn) [α-carboxybenzylpenicillin],M.I.C.,[1],12.5 µg/mL
